Results from PMC5613016, “GRL-09510, a Unique P2-Crown-Tetrahydrofuranylurethane -Containing HIV-1 Protease Inhibitor, Maintains Its Favorable Antiviral Activity against Highly-Drug-Resistant HIV-1 Variants in vitro” (Scientific Reports, 2017).
Where two headings read alike, the source gives them in different places.

Legend:
[1] = system: HIV-192UG029 (subtype A, X4); experiment: p24 production inhibition in PHA-PBMC; format: cell-based, HIV-1; conditions: Human immunodeficiency virus 1, read-out: EC50 HIV-192UG029 (subtype A, X4)
Protocol: (§1) The susceptibility of HIV-1LAI or HIV-2ROD to various compounds was determined as previously described[20]–[22]. Briefly, MT-2 cells (10^4/ml) were exposed to 100 TCID50 of HIV-1LAI or HIV-2ROD in the presence or absence of various concentrations of compounds in 96-well plates and were incubated at 37 °C for 7 days. After incubation, 100 μl of the medium was removed from each well, 3-(4,5-dimetylthiazol-2-yl)-2,5-diphenyltetrazolium bromide (MTT) solution (10 μl, 7.5 mg/ml in PBS) was added to each well, followed by incubation at 37 °C for 2 h. […] To determine the sensitivity of clinically isolated HIV-1s to compounds, PHA-PBMC (10^6/ml) were exposed to 50 TCID50 of each HIV-1 and cultured in the presence or absence of various concentrations of compounds in 10-fold serial dilutions in 96-well plates. In determining the drug-susceptibility of certain laboratory HIV-1 strains, MT-4 cells were employed as target cells as previously described[23],[24]. MT-4 cells (10^5/ml) were exposed to 100 TCID50 of drug-resistant HIV-1s in the presence or absence of various concentrations of compounds and were incubated at 37 °C. On day 7, the supernatants were harvested and the amounts of p24 were determined by using a fully-automated chemiluminescent enzyme immunoassay system (Lumipulse f: Fujirebio, Tokyo)[35]–[37]. […] All assays were performed in duplicate, and EC50 shown in this report represent average values of two to four independent experiments. PHA-PBMCs were derived from a single donor in each independent experiment. The research protocols described in the present study were carried out in accordance with relevant guidelines and regulations, and were approved in Ethics Committee for Epidemiological and General Research at the Faculty of Life Sciences, Kumamoto University.

HIV-1LAI = experiment: microbe, parasite or virus in culture; format: cell-based; conditions: for EC50: 100 TCID50, MTT assay, read-out: EC50 Against HIV-1LAI; for Selectivity Index (CC50/EC50) MT2/HIV-1LAI: ratio of CC50 to EC50 against HIV-1LAI
Protocol: as §1

HIV-2ROD = experiment: microbe, parasite or virus in culture; format: cell-based; conditions: for EC50: 100 TCID50, MTT assay, read-out: EC50 Against HIV-2ROD; for Selectivity Index (CC50/EC50) MT2/HIV-2ROD: ratio of CC50 to EC50 against HIV-2ROD
Protocol: as §1

[2] = Cytotoxicity against MT-2 cells (MTT assay); format: cell-based; conditions: human
Protocol: as §1

HIV-1NL4-3 [3] = system: HIV-1NL4-3; parameters: method as in PMID 14506019; conditions: HIV-1NL4-3 in MT-4 cells, increasing concentrations; previously reported; cited from earlier work
HIV-1MDR/B = experiment: p24 production inhibition in PHA-PBMC; format: cell-based; conditions: for EC50: p24 Gag production; for fold change of EC50 HIV-1MDR/B: compared to EC50 for HIV-1ERS104pre
Protocol: as §1

HIV-1BaL (subtype B, R5) = experiment: p24 production inhibition in PHA-PBMC; format: cell-based; conditions: Human immunodeficiency virus 1, PHA-PBMC, p24 Gag production
Protocol: as §1

[4] = system: HIV-1ERS104pre (wild-type); experiment: p24 production inhibition in PHA-PBMC; format: cell-based; conditions: p24 Gag production
Protocol: as §1

HIV-1MDR/TM = experiment: p24 production inhibition in PHA-PBMC; format: cell-based; conditions: for EC50: p24 Gag production; for fold change of EC50 HIV-1MDR/TM: compared to EC50 for HIV-1ERS104pre
Protocol: as §1

HIV-1MDRmix DRV ^R 20P = experiment: p24 production inhibition in PHA-PBMC; format: cell-based; conditions: for fold change of EC50 HIV-1MDRmix DRV ^R 20P: compared to EC50 for HIV-1ERS104pre
Protocol: as §1

HIV-1MDR/G = experiment: p24 production inhibition in PHA-PBMC; format: cell-based; conditions: for EC50: p24 Gag production; for fold change of EC50 HIV-1MDR/G: compared to EC50 for HIV-1ERS104pre
Protocol: as §1

[5] = system: HIV-1ME46 (subtype B, X4/R5); experiment: p24 production inhibition in PHA-PBMC; format: cell-based; conditions: Human immunodeficiency virus 1, PHA-PBMC, p24 Gag production
Protocol: as §1

HIV-1MDR/C = experiment: p24 production inhibition in PHA-PBMC; format: cell-based; conditions: for EC50: p24 Gag production; for fold change of EC50 HIV-1MDR/C: compared to EC50 for HIV-1ERS104pre
Protocol: as §1

HIV-1APV ^R 5μM = experiment: p24 production inhibition in MT-4 cells; format: cell-based; conditions: for fold change of EC50 HIV-1APV ^R 5μM: number in parentheses, compared to HIV-1NL4-3
Protocol: as §1

HIV-1NL4-3 [6] = experiment: p24 production inhibition in MT-4 cells; format: cell-based; conditions: p24 Gag production, Table 3
Protocol: as §1

HIV-1ATV ^R 5μM = experiment: p24 production inhibition in MT-4 cells; format: cell-based; conditions: for fold change of EC50 HIV-1ATV ^R 5μM: number in parentheses, compared to HIV-1NL4-3
Protocol: as §1

HIV-1LPV ^R 5μM = experiment: p24 production inhibition in MT-4 cells; format: cell-based; conditions: for fold change of EC50 HIV-1LPV ^R 5μM: number in parentheses, compared to HIV-1NL4-3
Protocol: as §1

HIV-1_9510 ^R 36P = experiment: p24 production inhibition in MT-4 cells; format: cell-based
Protocol: as §1

MT-2 cells = experiment: Cytotoxicity against MT-2 cells (MTT assay); format: cell-based
Protocol: as §1

HIV-1NL4-3 [7] = experiment: In vitro selection of resistant HIV-1 variants in MT-4 cells; format: cell-based; conditions: HIV-1NL4-3 in MT-4 cells, increasing concentrations
Source text: MT-4 cells (10^5/ml) were exposed to HIV-1NL4-3 (500 TCID50) and cultured in the presence of compounds at an initial concentration of its EC50 value. Viral replication was monitored by the determination of the amount of p24 produced by MT-4 cells. The supernatants were harvested on day 7 and were used to infect fresh MT-4 cells for the next round of culture in the presence of increasing concentrations of each compound. Proviral DNAs obtained from the lysates of infected cells were subjected to sequencing. This selection procedure was carried out until the drug concentration reached 5 μM as previously described[20]–[22]).

[8] = Human immunodeficiency virus 1, PHA-PBMC

CC(C)CN(C[C@@H](O)[C@H](Cc1ccccc1)NC(=O)O[C@H]1CCOC1)S(=O)(=O)c1ccc(N)cc1 [APV, Amprenavir]
EC50 [1]: 41 ± 2 nM | EC50 (HIV-1LAI; Human immunodeficiency virus 1, MT2, MT-2 cells): 37 ± 7 nM | Selectivity Index (CC50/EC50) MT2/HIV-1LAI (HIV-1LAI): 1,303 | EC50 (HIV-2ROD; Human immunodeficiency virus 2, MT2, MT-2 cells): 297 ± 174 nM | Selectivity Index (CC50/EC50) MT2/HIV-2ROD (HIV-2ROD): 162 | CC50 [2]: 48200 ± 9900 nM | passage at which selection concentration reached 5 µM (HIV-1NL4-3 [3]): ≥ 20 | EC50 (HIV-1MDR/B; [8]): 420 ± 50 nM | fold change of EC50 HIV-1MDR/B (HIV-1MDR/B): 11 | EC50 (HIV-1BaL (subtype B, R5)): 29 ± 2 nM | EC50 [4, 8]: 39 ± 5 nM | EC50 (HIV-1MDR/TM; [8]): 320 ± 50 nM | fold change of EC50 HIV-1MDR/TM (HIV-1MDR/TM): 8 | EC50 (HIV-1MDRmix DRV ^R 20P; Human immunodeficiency virus 1, read-out: EC50 HIV-1MDRmix DRV ^R 20P, PHA-PBMC, p24 Gag production): > 1000 nM | fold change of EC50 HIV-1MDRmix DRV ^R 20P (HIV-1MDRmix DRV ^R 20P): > 26 | EC50 (HIV-1MDR/G; [8]): 300 ± 90 nM | fold change of EC50 HIV-1MDR/G (HIV-1MDR/G): 8 | EC50 [5]: 22 ± 40 nM | EC50 (HIV-1MDR/C; [8]): 250 ± 50 nM | fold change of EC50 HIV-1MDR/C (HIV-1MDR/C): 6 | EC50 (HIV-1APV ^R 5μM; Human immunodeficiency virus 1, MT4, read-out: EC50 HIV-1APV ^R 5μM, MT-4 cells, p24 Gag production): > 1000 nM | fold change of EC50 HIV-1APV ^R 5μM (HIV-1APV ^R 5μM): > 25 | EC50 (HIV-1NL4-3 [6]; Human immunodeficiency virus 1, MT4, MT-4 cells): 30 ± 6 nM | EC50 (HIV-1ATV ^R 5μM; Human immunodeficiency virus 1, MT4, read-out: EC50 HIV-1ATV ^R 5μM, MT-4 cells, p24 Gag production): 350 ± 70 nM | fold change of EC50 HIV-1ATV ^R 5μM (HIV-1ATV ^R 5μM): 9 | EC50 (HIV-1LPV ^R 5μM; Human immunodeficiency virus 1, MT4, read-out: EC50 HIV-1LPV ^R 5μM, MT-4 cells, p24 Gag production): > 1000 nM | fold change of EC50 HIV-1LPV ^R 5μM (HIV-1LPV ^R 5μM): > 25 | EC50 (HIV-1_9510 ^R 36P; Human immunodeficiency virus 1, MT4, read-out: EC50 HIV-19510RP36): 270 ± 20 nM | fold change of EC50 HIV-19510RP36 (HIV-1_9510 ^R 36P; compared to EC50 for HIV-1NL4-3, Supplemental Table 3): 9

COc1ccc(S(=O)(=O)N(CC(C)C)CC(O)C(Cc2ccccc2)NC(=O)OC2C3COC4OCC2C4C3)cc1 (centres unmarked) [GRL-09610]
EC50 (HIV-1LAI; MT-2 cells): 2.3 ± 0.7 nM | Selectivity Index (CC50/EC50) MT2/HIV-1LAI (HIV-1LAI): 14,391 | EC50 (HIV-2ROD; MT-2 cells): 15 ± 9 nM | Selectivity Index (CC50/EC50) MT2/HIV-2ROD (HIV-2ROD): 2,207 | CC50 (MT-2 cells): 33100 ± 1000 nM | passage at which selection concentration reached 5 µM (HIV-1NL4-3 [7]): ~43 | EC50 (HIV-1MDR/B; PHA-PBMC): 14.5 ± 1.3 nM | fold change of EC50 HIV-1MDR/B (HIV-1MDR/B): 5 | EC50 ([4]; PHA-PBMC): 3.2 ± 0.2 nM | EC50 (HIV-1MDR/TM; PHA-PBMC): 28.9 ± 1.6 nM | fold change of EC50 HIV-1MDR/TM (HIV-1MDR/TM): 9 | fold change of EC50 HIV-1MDRmix DRV ^R 20P (HIV-1MDRmix DRV ^R 20P): 78 | EC50 (HIV-1MDRmix DRV ^R 20P; read-out: EC50 HIV-1MDRmix DRV ^R 20P, PHA-PBMC, p24 Gag production): 250 ± 30 nM | EC50 (HIV-1MDR/G; PHA-PBMC): 15.8 ± 13.3 nM | fold change of EC50 HIV-1MDR/G (HIV-1MDR/G): 5 | EC50 (HIV-1MDR/C; PHA-PBMC): 4.9 ± 1.8 nM | fold change of EC50 HIV-1MDR/C (HIV-1MDR/C): 2 | fold change of EC50 HIV-1APV ^R 5μM (HIV-1APV ^R 5μM): 97 | EC50 (HIV-1APV ^R 5μM; read-out: EC50 HIV-1APV ^R 5μM, MT-4 cells, p24 Gag production): 310 ± 90 nM | EC50 (HIV-1NL4-3 [6]; MT-4 cells): 3.2 ± 0.2 nM | fold change of EC50 HIV-1ATV ^R 5μM (HIV-1ATV ^R 5μM): 11 | EC50 (HIV-1ATV ^R 5μM; read-out: EC50 HIV-1ATV ^R 5μM, MT-4 cells, p24 Gag production): 35.4 ± 0.8 nM | fold change of EC50 HIV-1LPV ^R 5μM (HIV-1LPV ^R 5μM): 10 | EC50 (HIV-1LPV ^R 5μM; read-out: EC50 HIV-1LPV ^R 5μM, MT-4 cells, p24 Gag production): 32 ± 1 nM
